Test results published in paper PMC4585259 (Frontiers in Pharmacology, 2015).
Where two headings read alike, the source gives them in different places. Values belong to the compound of their own block, whether it stands above or below them.

Biological target: T1, rNav1.2 sodium channels (Rattus norvegicus, UniProt P04775)
T1 construct: host or cells: HEK-293
Experiment: QPatch automated patch clamp, inhibition of sodium currents evoked by 5 Hz trains at three extracellular pH values
Assay type: cell-based
Conditions: for class of pH-dependence pattern (cluster analysis): Ward's method on 18 variables of affinity, reversibility, onset; for effect of alkalic pH on onset/offset kinetics: in words
Procedure: HEK-293 cells stably expressing rNav1.2 sodium channels were obtained from NeuroSearch (Ballerup, Denmark). The cells were grown in Dulbecco's modified Eagle medium supplemented with 10% FBS. Prior to use, the cells were trypsinized and subsequently kept in suspension in the QPatch cell storage facility in CHO-S- SFM-II medium.
Composition of the extracellular solution was: (in mM): 140 NaCl, 3 KCl, 1 CaCl2 1 MgCl2, 0.1 CdCl2, 20 TEA-Cl, 5 HEPES, adjusted to pH 7.3, Osmolality: 320 mOsm. […] Drugs were synthesized in Gedeon Richter Plc. […] The full list of drugs, with their three-letter codes, concentration, as well as their main therapeutic indication and main mechanism of action are shown in Table 1. […] The choice of concentrations used in this study may seem unusually high.
Data were sampled at a frequency of 25 kHz and filtered at 5 kHz. Junction potential was calculated to be −11 mV and was corrected for. […] Cells having membrane resistance < 500 MOhm, series resistance > 9 MOhm, or capacitance > 22 pF were excluded from analysis. The experimental protocol was also identical to the one used in our previous study: sodium channels were activated by 5 Hz trains of 5 depolarizations (−90 to −10 mV) repeated in every 20 s. In this study, however, the same control–drug-application–washout sequence was repeated four times: at neutral, acidic, alkalic, and again neutral pH. The peak amplitudes of sodium currents throughout the whole experiment are shown plotted against time in Figure 1 and Supplementary Figure 1.
Initial analysis, including subtraction of leak and capacitive artifacts, as well as peak detection were done in the QPatch software. […] All experiments were normalized to the amplitude of the current evoked by the first depolarization of the last train under control conditions. […] For all four drug applications in an experiment, apparent affinity, onset and offset time constants as well as reversibility values were calculated. […] (This method is equivalent to applying the Lineweaver-Burk plot method using a single concentration.) Reversibility values were calculated from control (c), inhibited (i), and wash-out (w) amplitudes as follows: Reversibility = (w-i)/(c-i). Reversibility values should not be regarded as experimental platform-independent properties of compounds. […] However, reversibility values are a valuable source of information regarding physicochemical differences between individual drugs, or between effects of the same drug under different extracellular pH conditions. Onset and offset time constants were determined by single exponential fitting to individual experiments. For neutral pH numerical data were given as the average of the data from the first and the last drug applications. Thin black lines on Figure 1 and Supplemental Figure 1 show the average of five fitted exponentials, (not the exponential fitted to the averaged normalized amplitudes). The numerical values of apparent affinity, onset and offset time constants and reversibility are shown in Table 2, and their relative position is illustrated in Figure 2. Affinity and time constant values were logarithmically transformed for statistics, therefore we show their geometric mean. For recovery data no transformation was done, and we show arithmetic mean values. Significance values were calculated using paired, two-tailed Student's t-test based on five pairs of apparent affinity (log transform), time constant (log transform), or reversibility values obtained from five individual experiments. Because of the large number of comparisons in this study, we accepted p < 0.01 as significant. Cluster analysis was done using Ward's minimum variance method, with Euclidean distance measure. Data were normalized by subtracting the mean (after logarithmic transformation in the case of apparent affinity and time constants), and dividing by the standard deviation.

[1] = pH 6.0, concentration (lidocaine 300 μM, memantine 30 μM)
[2] = pH 6.0, higher concentration: lidocaine 1000 μM, memantine 100 μM
[3] = pH 6.0, single concentration (lidocaine 300 μM, memantine 30 μM), geometric mean of 5, read-out: apparent affinity
[4] = pH 7.3, concentration (lidocaine 300 μM, memantine 30 μM)
[5] = pH 7.3, higher concentration: lidocaine 1000 μM, memantine 100 μM
[6] = pH 7.3, single concentration (lidocaine 300 μM, memantine 30 μM), geometric mean of 5, read-out: apparent affinity
[7] = pH 8.6, concentration (lidocaine 300 μM, memantine 30 μM)
[8] = pH 8.6, higher concentration: lidocaine 1000 μM, memantine 100 μM
[9] = pH 8.6, single concentration (lidocaine 300 μM, memantine 30 μM), geometric mean of 5, read-out: apparent affinity
[10] = pH=6.0, cc 100 mM, read-out: Apparent Affinity
[11] = pH=7.3, cc 100 mM, read-out: Apparent Affinity
[12] = pH=8.6, cc 100 mM, read-out: Apparent Affinity

T1 sequence (P04775 whole entry): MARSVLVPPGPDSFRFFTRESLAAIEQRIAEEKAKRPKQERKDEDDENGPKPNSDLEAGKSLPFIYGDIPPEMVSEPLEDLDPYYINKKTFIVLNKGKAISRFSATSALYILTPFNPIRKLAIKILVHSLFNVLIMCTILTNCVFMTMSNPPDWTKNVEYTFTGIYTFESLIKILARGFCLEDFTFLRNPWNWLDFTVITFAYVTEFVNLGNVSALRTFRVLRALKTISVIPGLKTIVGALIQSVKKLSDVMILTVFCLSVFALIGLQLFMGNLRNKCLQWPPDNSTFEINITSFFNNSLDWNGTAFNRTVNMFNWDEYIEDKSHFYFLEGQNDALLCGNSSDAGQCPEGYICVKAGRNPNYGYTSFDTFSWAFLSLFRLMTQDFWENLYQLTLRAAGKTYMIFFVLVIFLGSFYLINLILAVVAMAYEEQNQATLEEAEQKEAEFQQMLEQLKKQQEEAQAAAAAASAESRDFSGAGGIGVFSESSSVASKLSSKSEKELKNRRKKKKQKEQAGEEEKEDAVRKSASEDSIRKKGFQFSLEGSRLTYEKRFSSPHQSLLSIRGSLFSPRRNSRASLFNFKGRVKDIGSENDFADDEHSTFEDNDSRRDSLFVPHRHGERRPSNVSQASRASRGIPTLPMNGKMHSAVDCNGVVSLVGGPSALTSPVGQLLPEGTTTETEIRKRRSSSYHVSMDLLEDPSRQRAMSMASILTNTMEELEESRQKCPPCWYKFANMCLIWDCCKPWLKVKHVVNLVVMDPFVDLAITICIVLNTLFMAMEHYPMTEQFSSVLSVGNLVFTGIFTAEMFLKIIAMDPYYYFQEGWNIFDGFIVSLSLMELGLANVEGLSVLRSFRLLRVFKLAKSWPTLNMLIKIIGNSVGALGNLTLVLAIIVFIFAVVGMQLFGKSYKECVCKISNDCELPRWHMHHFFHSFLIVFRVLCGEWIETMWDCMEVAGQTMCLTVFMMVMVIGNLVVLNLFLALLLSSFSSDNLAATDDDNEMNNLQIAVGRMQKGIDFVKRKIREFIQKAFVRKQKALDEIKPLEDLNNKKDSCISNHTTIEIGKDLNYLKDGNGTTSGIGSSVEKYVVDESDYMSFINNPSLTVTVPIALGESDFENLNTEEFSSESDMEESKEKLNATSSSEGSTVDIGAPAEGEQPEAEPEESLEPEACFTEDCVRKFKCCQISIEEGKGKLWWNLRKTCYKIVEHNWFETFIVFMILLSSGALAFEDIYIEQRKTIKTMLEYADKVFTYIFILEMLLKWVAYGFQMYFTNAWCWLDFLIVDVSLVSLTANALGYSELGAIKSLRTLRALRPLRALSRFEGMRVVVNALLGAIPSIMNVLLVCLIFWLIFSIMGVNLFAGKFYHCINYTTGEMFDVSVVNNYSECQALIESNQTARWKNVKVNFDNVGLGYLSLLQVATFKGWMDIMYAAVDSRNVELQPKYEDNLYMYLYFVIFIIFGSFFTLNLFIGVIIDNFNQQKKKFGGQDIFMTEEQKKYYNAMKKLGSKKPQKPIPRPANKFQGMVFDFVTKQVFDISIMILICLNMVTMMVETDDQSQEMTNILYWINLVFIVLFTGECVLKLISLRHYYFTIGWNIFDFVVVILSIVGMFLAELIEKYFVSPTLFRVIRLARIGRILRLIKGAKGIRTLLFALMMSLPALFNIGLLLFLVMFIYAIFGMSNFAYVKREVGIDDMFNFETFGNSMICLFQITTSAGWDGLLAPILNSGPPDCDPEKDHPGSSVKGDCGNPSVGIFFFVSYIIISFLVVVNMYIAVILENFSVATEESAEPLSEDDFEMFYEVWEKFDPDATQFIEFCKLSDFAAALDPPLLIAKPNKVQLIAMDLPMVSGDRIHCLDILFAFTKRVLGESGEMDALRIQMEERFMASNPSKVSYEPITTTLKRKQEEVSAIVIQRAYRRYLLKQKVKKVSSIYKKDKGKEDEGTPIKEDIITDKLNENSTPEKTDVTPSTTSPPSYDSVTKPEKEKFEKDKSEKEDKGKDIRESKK

SMILES: CC12CC3CC(C)(C1)CC(N)(C3)C2 [memantine]
- class of pH-dependence pattern (cluster analysis): Class F
- Ratio Reversibility (pH 6.0/7.3, cc 30 mM): 0.946
- Ratio Tau Offset (pH 6.0/7.3, cc 30 mM): 1.093
- Ratio Tau Onset (pH 6.0/7.3, cc 30 mM): 0.877
- log Ratio App Aff (pH 6.0/7.3, cc 30 mM): 0.255
- Ratio Reversibility (pH 6.0/7.3, cc 100 mM): 0.974
- Ratio Tau Offset (pH 6.0/7.3, cc 100 mM): 0.656
- Ratio Tau Onset (pH 6.0/7.3, cc 100 mM): 1.032
- log Ratio App Aff (pH 6.0/7.3, cc 100 mM): 0.109
- Ratio Reversibility (pH 6.0/8.6, cc 30 mM): 1.464
- Ratio Tau Offset (pH 6.0/8.6, cc 30 mM): 1.000
- Ratio Tau Onset (pH 6.0/8.6, cc 30 mM): 0.688
- log Ratio App Aff (pH 6.0/8.6, cc 30 mM): 0.915
- Ratio Reversibility (pH 6.0/8.6, cc 100 mM): 1.593
- Ratio Tau Offset (pH 6.0/8.6, cc 100 mM): 0.550
- Ratio Tau Onset (pH 6.0/8.6, cc 100 mM): 0.842
- log Ratio App Aff (pH 6.0/8.6, cc 100 mM): 0.840
- τoffset [1]: 23.60 s
- τonset [1]: 12.80 s
- τoffset [2]: 12.20 s
- τonset [2]: 12.80 s
- Kd (pH 6.0, higher concentration: lidocaine 1000 μM, memantine 100 μM, read-out: apparent affinity): 303 µM
- Kd [3]: 394 µM
- Ratio Reversibility (pH 7.3/8.6, cc 30 mM): 1.547
- Ratio Tau Offset (pH 7.3/8.6, cc 30 mM): 0.915
- Ratio Tau Onset (pH 7.3/8.6, cc 30 mM): 0.785
- log Ratio App Aff (pH 7.3/8.6, cc 30 mM): 0.661
- Ratio Reversibility (pH 7.3/8.6, cc 100 mM): 1.636
- Ratio Tau Offset (pH 7.3/8.6, cc 100 mM): 0.838
- Ratio Tau Onset (pH 7.3/8.6, cc 100 mM): 0.816
- log Ratio App Aff (pH 7.3/8.6, cc 100 mM): 0.731
- τoffset [4]: 21.60 s
- τonset [4]: 14.60 s
- τoffset [5]: 18.60 s
- τonset [5]: 12.40 s
- Kd (pH 7.3, higher concentration: lidocaine 1000 μM, memantine 100 μM, read-out: apparent affinity): 236 µM
- Kd [6]: 219 µM
- τoffset [7]: 23.60 s
- τonset [7]: 18.60 s
- τoffset [8]: 22.20 s
- τonset [8]: 15.20 s
- Kd (pH 8.6, higher concentration: lidocaine 1000 μM, memantine 100 μM, read-out: apparent affinity): 43.8 µM
- Kd [9]: 47.9 µM
- KD app, effect of acidic medium (pH = 6.0 vs neutral, increased KD app = decreased apparent affinity): MEM,MEX,TOL↑
- Reversibility (pH=6.0, cc 30 mM): 0.82
- Kd (pH=6.0, cc 30 mM, read-out: Apparent Affinity): 394 µM
- Reversibility (pH=6.0, cc 100 mM): 0.89
- Kd [10]: 303 µM
- Reversibility (pH=7.3, cc 30 mM): 0.86
- Kd (pH=7.3, cc 30 mM, read-out: Apparent Affinity): 219 µM
- Reversibility (pH=7.3, cc 100 mM): 0.92
- Kd [11]: 236 µM
- Reversibility (pH=8.6, cc 30 mM): 0.56
- Kd (pH=8.6, cc 30 mM, read-out: Apparent Affinity): 47.9 µM
- Reversibility (pH=8.6, cc 100 mM): 0.56
- Kd [12]: 43.8 µM

- class of pH-dependence pattern (cluster analysis): Class B
- Ratio Reversibility (pH 6.0/7.3, cc 300 mM): 1.142
- Ratio Tau Offset (pH 6.0/7.3, cc 300 mM): 1.344
- Ratio Tau Onset (pH 6.0/7.3, cc 300 mM): 2.358
- log Ratio App Aff (pH 6.0/7.3, cc 300 mM): 0.419
- Ratio Reversibility (pH 6.0/8.6, cc 300 mM): 2.794
- Ratio Tau Offset (pH 6.0/8.6, cc 300 mM): 3.109
- Ratio Tau Onset (pH 6.0/8.6, cc 300 mM): 7.632
- log Ratio App Aff (pH 6.0/8.6, cc 300 mM): 0.583
- τoffset [1]: 91.40 s
- τonset [1]: 58.00 s
- Kd [3]: 68.1 µM
- Ratio Reversibility (pH 7.3/8.6, cc 300 mM): 2.446
- Ratio Tau Offset (pH 7.3/8.6, cc 300 mM): 2.313
- Ratio Tau Onset (pH 7.3/8.6, cc 300 mM): 3.237
- log Ratio App Aff (pH 7.3/8.6, cc 300 mM): 0.164
- τoffset [4]: 68.00 s
- τonset [4]: 24.60 s
- Kd [6]: 25.9 µM
- τoffset [7]: 29.40 s
- τonset [7]: 7.60 s
- Kd [9]: 17.8 µM
- Reversibility (pH=6.0, cc 300 mM): 0.64
- Kd (pH=6.0, cc 300 mM, read-out: Apparent Affinity): 68.1 µM
- Reversibility (pH=7.3, cc 300 mM): 0.56
- Kd (pH=7.3, cc 300 mM, read-out: Apparent Affinity): 25.9 µM
- Reversibility (pH=8.6, cc 300 mM): 0.23
- Kd (pH=8.6, cc 300 mM, read-out: Apparent Affinity): 17.8 µM
SMILES: O=C(NCC1CCCCN1)c1cc(OCC(F)(F)F)ccc1OCC(F)(F)F (stereo not drawn) [flecainide]
- effect of alkalic pH on onset/offset kinetics: significant acceleration of both onset and offset

SMILES: CCCCN1CCCCC1C(=O)Nc1c(C)cccc1C (stereo not drawn) [bupivacaine]
- class of pH-dependence pattern (cluster analysis): Class B
- effect of alkalic pH on onset/offset kinetics: significant acceleration of both onset and offset
- Ratio Reversibility (pH 6.0/7.3, cc 100 mM): 0.906
- Ratio Tau Offset (pH 6.0/7.3, cc 100 mM): 2.692
- Ratio Tau Onset (pH 6.0/7.3, cc 100 mM): 4.180
- log Ratio App Aff (pH 6.0/7.3, cc 100 mM): 0.218
- Ratio Reversibility (pH 6.0/8.6, cc 100 mM): 1.346
- Ratio Tau Offset (pH 6.0/8.6, cc 100 mM): 4.516
- Ratio Tau Onset (pH 6.0/8.6, cc 100 mM): 4.322
- log Ratio App Aff (pH 6.0/8.6, cc 100 mM): 0.412
- τoffset [1]: 56.00 s
- τonset [1]: 51.00 s
- Kd [3]: 106 µM
- Ratio Reversibility (pH 7.3/8.6, cc 100 mM): 1.485
- Ratio Tau Offset (pH 7.3/8.6, cc 100 mM): 1.677
- Ratio Tau Onset (pH 7.3/8.6, cc 100 mM): 1.034
- log Ratio App Aff (pH 7.3/8.6, cc 100 mM): 0.194
- τoffset [4]: 20.80 s
- τonset [4]: 12.20 s
- Kd [6]: 64.2 µM
- τoffset [7]: 12.40 s
- τonset [7]: 11.80 s
- Kd [9]: 41 µM
- Reversibility (pH=6.0, cc 100 mM): 0.64
- Kd [10]: 106 µM
- Reversibility (pH=7.3, cc 100 mM): 0.71
- Kd [11]: 64.2 µM
- Reversibility (pH=8.6, cc 100 mM): 0.48
- Kd [12]: 41 µM
